This is an account of results in patent US20040033936A1, “Production, stabilisation and use of reduced forms of pharmaceutical compounds” (priority 2000, published 2004).

The nature of data set [1]: Qualitative assessment of reduction of methylene blue in aqueous solution (visual colour change blue to colourless). It counts as physicochemical. The settings on record: for Rate/extent of reduction: neutral, final pH about 6.5; for Rate of reduction: compared to neutral pH. The procedure:
In aqueous solution, the oxidised form of methylene blue has a deep blue coloration, and the reduced (leuco) form is colourless and clear. Reduction of methylene blue can therefore be determined by observation of a colour change from blue to colourless. In the present experiments, the colour change was measured by eye against a white background, but instrumentation, e.g. a visible range spectrophotometer, could also be used.
Individual reducing agents or combinations of reducing agents were added to a solution of methylene blue. […] Reduction of methylene blue was assessed by visual observation of colour change. […] The pH of the final solution of methylene blue and reducing agent(s) was about pH 6.5 in each case (here referred to as “neutral”).
Individual reducing agents or combinations of reducing agents were added, in solution; to a methylene blue solution which had been made either acid or alkaline using acetic acid or sodium hydroxide, respectively. The effect of pH on reduction of methylene blue was determined. Reduction of methylene blue was assessed by visual observation of colour change. The rate of reduction (if any) was compared to the rates of reduction at neutral pH.
In the present context, “acid” refers to a pH adjusted to approximately 3.7 using acetic acid, and “alkali” refers to a pH adjusted to approximately 9.8 using sodium hydroxide. The results are as follows: […]

Data set [2] is described as follows: Qualitative assessment of reduction of thionine in aqueous solution (visual colour change blue/purple to colourless). The settings on record: thionine 50 mg/30 ml; reducing agents 250 mg/3 ml. It counts as physicochemical. Here is the method: The following reducing agents or combinations of reducing agents (250 mg/3 ml) were added to an aqueous solution of thionine (50 mg/30 mU. Reduction of thionine was determined by visual observation of colour change from blue/purple to colourless. All experiments used 1.67 mg/mI (50 mg/30 ml) thionine solution. Ascorbic acid, L-cysteine or glutathione was used in solution at 83.3 mg/mi (250 mg/3 ml).

The mark [3] stands for this setting: acid, pH approximately 3.7 (acetic acid).
Where [4] appears, read: alkali, pH approximately 9.8 (sodium hydroxide).

In the case of `Cl.N[C@@H](CS)C(=O)O` [L-cysteine, L-cysteine hydrochloride], the Rate/extent of reduction result in data set [1] was “no reduction”.
Consider `CC(=O)N[C@@H](CS)C(=O)O` [N-acetyl-L-cysteine, N-acetyl L-cysteine], for which the Rate/extent of reduction result in data set [1] was “partial reduction”.
Take `O=C1O[C@H]([C@@H](O)CO)C(O)=C1O` [ascorbic acid]: the figures for the Rate of reduction result in data set [1] (setting [3]), in data set [1] (setting [4]) and in data set [2] were “no change in rate compared to neutral”, “no change in rate compared to neutral” and “reduced in about 10-15 minutes”, respectively. In addition, the Rate/extent of reduction entry in data set [1] is on record as “reduced slowly over 10-15 minutes”.
`N[C@@H](CCC(=O)N[C@@H](CS)C(=O)NCC(=O)O)C(=O)O` [glutathione]: the Rate of reduction result in data set [1] (setting [3]) was “no observable reduction (as with neutral)”; in data set [1] (setting [4]), “slight reduction over 10-15 minutes”; in data set [2] it was “no reduction”. For the same compound, the Rate/extent of reduction entry in data set [1] was “no reduction over 15 minutes”.
Take `CSCC[C@H](N)C(=O)O` [methionine]: the Rate/extent of reduction result in data set [1] is “no reduction”.
Regarding `O=S([O-])S(=O)[O-].[Na+].[Na+]` [sodium hydrosulphite], the Rate/extent of reduction result in data set [1] is given as “very rapid reduction”. Moreover, in data set [2], the Rate of reduction entry is given as “rapid reduction”.
As for `O=S([O-])S(=O)(=O)[O-].[Na+].[Na+]` [sodium metabisulphite], the Rate/extent of reduction entry in data set [1] was “no reduction”.
